Results published in patent US20230127944A1, “BROAD-SPECTRUM CARBAPENEMS” (priority 2019, published 2023).
≈ marks a conversion by molar mass, not a printed value. Like-named read-outs stand apart in the source and are kept apart here.

Experiments:
Format in all cases: cell-based
[1] = system: E. coli ATCC 25922 (wild-type/QC strain); assay: broth microdilution MIC assay, E. coli 25922
How it was run: (§1)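 Following CLSI methods, 2-fold compound dilutions are challenged with 5×10^5 CFU/mL bacteria in cation-supplemented Mueller-Hinton broth. After 16-20 hours at 37° C, the lowest well showing no bacterial growth is taken as the MIC.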

S. aureus USA 600 = assay: broth microdilution MIC assay, S. aureus USA600; conditions: Staphylococcus aureus
How it was run: as §1

[2] = system: P. aeruginosa 35151 (hyper-permeable strain); assay: broth microdilution MIC assay, P. aeruginosa 35151; conditions: Pseudomonas aeruginosa, read-out: MIC, P. aeruginosa 35151
How it was run: as §1

[3] = system: P. aeruginosa ATCC 27853 (wild-type/QC strain); assay: broth microdilution MIC assay, P. aeruginosa 27853
How it was run: as §1

S. aureus USA 300 = assay: broth microdilution MIC assay, S. aureus USA300; conditions: Staphylococcus aureus
How it was run: as §1

P. aeruginosa Paeβ-17 = assay: broth microdilution MIC assay, P. aeruginosa Paeβ-17; conditions: Pseudomonas aeruginosa, read-out: MIC, P. aeruginosa Paeβ-17
How it was run: as §1

[4] = system: S. aureus ATCC 33591 (methicillin-resistant); assay: broth microdilution MIC assay, S. aureus 33591; conditions: Staphylococcus aureus
How it was run: as §1

[5] = system: P. aeruginosa ΔmexAB-OprM (an efflux pump knockout); assay: broth microdilution MIC assay, P. aeruginosa ΔmexAB-OprM; conditions: Pseudomonas aeruginosa, read-out: MIC, P. aeruginosa ΔmexAB-OprM
How it was run: as §1

[6] = Escherichia coli, ATCC25922; read-out: MIC, E. coli 25922
[7] = S. aureus USA600 (MRSA), read-out: MIC, S. aureus USA600
[8] = Pseudomonas aeruginosa, ATCC27853; read-out: MIC, P. aeruginosa 27853
[9] = S. aureus USA300 (MRSA), read-out: MIC, S. aureus USA300
[10] = ATCC33591, S. aureus 33591, methicillin-resistant, read-out: MIC, S. aureus 33591

**Q.** `C[C@@H](O)[C@H]1C(=O)N2C(C(=O)O)=C(S[C@H]3C[C@@H](N[C@H]4CC[C@@H](NC(=N)N)CC4)C3)[C@H](C)[C@H]12` [Example 51, (4R,5S,6S)-3-(((1S,3S)-3-(((1S,4R)-4-guanidinocyclohexyl)amino)cyclobutyl)thio)-6-((R)-1-hydroxyethyl)-4-methyl-7-oxo-1-azabicyclo[3.2.0]hept-2-ene-2-carboxylic acid] was tested. Which MIC [1, 6] did it give?
**A.** < 1 µg/mL

**Q.** What about the MIC (S. aureus USA 600; [7]) of the same compound?
**A.** 1 to 4 µg/mL (≈ 2.21 to 8.86 µM)

**Q.** What about the MIC [2] of the same compound?
**A.** < 1 µg/mL

**Q.** And the MIC [3, 8]?
**A.** 1 to 4 µg/mL (≈ 2.21 to 8.86 µM)

**Q.** And the MIC (S. aureus USA 300; [9])?
**A.** < 1 µg/mL

**Q.** And the MIC (P. aeruginosa Paeβ-17)?
**A.** 8 to 32 µg/mL (≈ 17.7 to 70.9 µM)

**Q.** And the MIC [4, 10]?
**A.** 1 to 4 µg/mL (≈ 2.21 to 8.86 µM)

**Q.** What about the MIC [5] of the same compound?
**A.** 1 to 4 µg/mL (≈ 2.21 to 8.86 µM)

**Q.** What does the source list for `C[C@@H](O)[C@H]1C(=O)N2C(C(=O)O)=C(S[C@H]3C[C@@H](N[C@H]4CC[C@H](NC(=N)N)CC4)C3)[C@H](C)[C@H]12` [Example 52, (4R,5S,6S)-3-(((1S,3S)-3-(((1R,4S)-4-guanidinocyclohexyl)amino)cyclobutyl)thio)-6-((R)-1-hydroxyethyl)-4-methyl-7-oxo-1-azabicyclo[3.2.0]hept-2-ene-2-carboxylic acid]?
**A.** MIC [1, 6]: < 1 µg/mL; MIC (S. aureus USA 600; [7]): < 1 µg/mL; MIC [2]: < 1 µg/mL; MIC [3, 8]: 1 to 4 µg/mL (≈ 2.21 to 8.86 µM); MIC (S. aureus USA 300; [9]): 1 to 4 µg/mL (≈ 2.21 to 8.86 µM); MIC (P. aeruginosa Paeβ-17): 8 to 32 µg/mL (≈ 17.7 to 70.9 µM); MIC [4, 10]: 1 to 4 µg/mL (≈ 2.21 to 8.86 µM); MIC [5]: 1 to 4 µg/mL (≈ 2.21 to 8.86 µM)

**Q.** For `C[C@@H](O)[C@H]1C(=O)N2C(C(=O)O)=C(S[C@@H]3CC[C@@H](NC4CCNCC4)C3)[C@H](C)[C@H]12` [Example 53, (4R,5S,6S)-6-((R)-1-hydroxyethyl)-4-methyl-7-oxo-3-(((1R,3R)-3-(piperidin-4-ylamino)cyclopentyl)thio)-1-azabicyclo[3.2.0]hept-2-ene-2-carboxylic acid], which MIC [1, 6] is on record?
**A.** < 1 µg/mL

**Q.** What about the MIC (S. aureus USA 600; [7]) of the same compound?
**A.** 1 to 4 µg/mL (≈ 2.44 to 9.77 µM)

**Q.** What about the MIC [2] of the same compound?
**A.** < 1 µg/mL

**Q.** What about the MIC [3, 8] of the same compound?
**A.** 8 to 32 µg/mL (≈ 19.5 to 78.1 µM)

**Q.** And the MIC (S. aureus USA 300; [9])?
**A.** 1 to 4 µg/mL (≈ 2.44 to 9.77 µM)

**Q.** What about the MIC (P. aeruginosa Paeβ-17) of the same compound?
**A.** 8 to 32 µg/mL (≈ 19.5 to 78.1 µM)

**Q.** What about the MIC [4, 10] of the same compound?
**A.** 8 to 32 µg/mL (≈ 19.5 to 78.1 µM)

**Q.** And the MIC [5]?
**A.** 1 to 4 µg/mL (≈ 2.44 to 9.77 µM)

**Q.** Which MIC ([1]; Escherichia coli, ATCC25922, read-out: MIC, E. coli 25922) does the source give for `C[C@@H](O)[C@H]1C(=O)N2C(C(=O)O)=C(S[C@H]3C[C@@H](N4CCC(N)CC4)C3)[C@H](C)[C@H]12` [Example 54] here?
**A.** < 1 µg/mL

**Q.** And the MIC (S. aureus USA 600; MRSA / USA600, read-out: MIC, S. aureus USA600)?
**A.** 1 to 4 µg/mL (≈ 2.53 to 10.1 µM)

**Q.** What about the MIC [2] of the same compound?
**A.** < 1 µg/mL

**Q.** What about the MIC ([3]; Pseudomonas aeruginosa, ATCC27853, read-out: MIC, P. aeruginosa 27853) of the same compound?
**A.** 8 to 32 µg/mL (≈ 20.2 to 80.9 µM)

**Q.** What about the MIC (S. aureus USA 300; MRSA / USA300, read-out: MIC, S. aureus USA300) of the same compound?
**A.** 8 to 32 µg/mL (≈ 20.2 to 80.9 µM)

**Q.** And the MIC (P. aeruginosa Paeβ-17)?
**A.** 8 to 32 µg/mL (≈ 20.2 to 80.9 µM)

**Q.** What about the MIC ([4]; ATCC33591, read-out: MIC, S. aureus 33591) of the same compound?
**A.** 8 to 32 µg/mL (≈ 20.2 to 80.9 µM)

**Q.** What about the MIC [5] of the same compound?
**A.** 1 to 4 µg/mL (≈ 2.53 to 10.1 µM)

**Q.** Which MIC [1, 6] does the source give for `C[C@@H](O)[C@H]1C(=O)N2C(C(=O)O)=C(S[C@@H]3CC[C@@H](NC4CCN(C(=N)N)CC4)C3)[C@H](C)[C@H]12` [Example 55, (4R,5S,6S)-3-(((1R,3R)-3-((1-carbamimidoylpiperidin-4-yl)amino)cyclopentyl)thio)-6-((R)-1-hydroxyethyl)-4-methyl-7-oxo-1-azabicyclo[3.2.0]hept-2-ene-2-carboxylic acid] here?
**A.** < 1 µg/mL

**Q.** What about the MIC (S. aureus USA 600; [7]) of the same compound?
**A.** 1 to 4 µg/mL (≈ 2.21 to 8.86 µM)

**Q.** And the MIC [2]?
**A.** < 1 µg/mL

**Q.** And the MIC [3, 8]?
**A.** 8 to 32 µg/mL (≈ 17.7 to 70.9 µM)

**Q.** What about the MIC (S. aureus USA 300; [9]) of the same compound?
**A.** 1 to 4 µg/mL (≈ 2.21 to 8.86 µM)

**Q.** And the MIC (P. aeruginosa Paeβ-17)?
**A.** 8 to 32 µg/mL (≈ 17.7 to 70.9 µM)

**Q.** And the MIC [4, 10]?
**A.** 1 to 4 µg/mL (≈ 2.21 to 8.86 µM)

**Q.** And the MIC [5]?
**A.** 1 to 4 µg/mL (≈ 2.21 to 8.86 µM)

**Q.** How did the MIC [1, 6] turn out when `C[C@@H](O)[C@H]1C(=O)N2C(C(=O)O)=C(S[C@@H]3CCN(C[C@H]4CC[C@H](N)CC4)C3)[C@H](C)[C@H]12` [Example 56, (4R,5S,6S)-3-(((R)-1-(((1R,4R)-4-aminocyclohexyl)methyl)pyrrolidin-3-yl)thio)-6-((R)-1-hydroxyethyl)-4-methyl-7-oxo-1-azabicyclo[3.2.0]hept-2-ene-2-carboxylic acid] was run?
**A.** < 1 µg/mL

**Q.** What about the MIC (S. aureus USA 600; [7]) of the same compound?
**A.** 1 to 4 µg/mL (≈ 2.36 to 9.44 µM)

**Q.** And the MIC [2]?
**A.** < 1 µg/mL

**Q.** What about the MIC [3, 8] of the same compound?
**A.** 1 to 4 µg/mL (≈ 2.36 to 9.44 µM)

**Q.** And the MIC (S. aureus USA 300; [9])?
**A.** 1 to 4 µg/mL (≈ 2.36 to 9.44 µM)

**Q.** And the MIC (P. aeruginosa Paeβ-17)?
**A.** 8 to 32 µg/mL (≈ 18.9 to 75.5 µM)

**Q.** And the MIC [4, 10]?
**A.** 1 to 4 µg/mL (≈ 2.36 to 9.44 µM)

**Q.** What about the MIC [5] of the same compound?
**A.** 1 to 4 µg/mL (≈ 2.36 to 9.44 µM)

**Q.** Which results are given for `C[C@@H](O)[C@H]1C(=O)N2C(C(=O)O)=C(S[C@@H]3CCN([C@H]4CC[C@@H](CN)CC4)C3)[C@H](C)[C@H]12` [Example 57, (4R,5S,6S)-3-(((R)-1-((1S,4S)-4-(aminomethyl)cyclohexyl)pyrrolidin-3-yl)thio)-6-((R)-1-hydroxyethyl)-4-methyl-7-oxo-1-azabicyclo[3.2.0]hept-2-ene-2-carboxylic acid]?
**A.** MIC [1, 6]: < 1 µg/mL; MIC (S. aureus USA 600; [7]): 1 to 4 µg/mL (≈ 2.36 to 9.44 µM); MIC [2]: < 1 µg/mL; MIC [3, 8]: 1 to 4 µg/mL (≈ 2.36 to 9.44 µM); MIC (S. aureus USA 300; [9]): 1 to 4 µg/mL (≈ 2.36 to 9.44 µM); MIC (P. aeruginosa Paeβ-17): 8 to 32 µg/mL (≈ 18.9 to 75.5 µM); MIC [4, 10]: 1 to 4 µg/mL (≈ 2.36 to 9.44 µM); MIC [5]: 1 to 4 µg/mL (≈ 2.36 to 9.44 µM)
